From patent US11147219B2, “Methods and systems for growing plants using silicate-based substrates, cultivation of enhanced photosynthetic productivity and photosafening by utilization of exogenous glycopyranosides for endogenous glycopyranosyl-protein derivatives, and formulations, process and systems for the same” (Innovation Hammer, LLC, priority 2011, dated 2021)
Entries after “also recorded” stand apart in the source; their conditions may differ.

Experiments:
[1] = system: plants; assay: Relative potency of glycosides on plants (stated, no method); details: in vivo
[2] = system: radish "Cherry Bell" Raphanus sativus L.; assay: Greenhouse foliar treatment of radish, root dry weight; assay type: in vivo; details: for active concentration applied for growth response: foliar, radish
Method: Plant responses to formulations of an alkyl-α-D-mannopyranose and an electron donating-aryl-α-D-mannopyranose were consistent with preferred binding tendencies to displace glucose from storage. Plants were maintained in automated greenhouses controlled for temperature, light and circulation. Environmental conditions during the course of the studies averaged 13:11 hour L:D photoperiod, 25°:20° C. day:night and 20% to 80% relative humidity. Sunlight was supplemented with electrical illumination to achieve photosynthetically active radiation levels ranging from 350 to 600 μmol photons·m^−2·s^−1 at the level of the phylloplane. Solutions for treated and control plants were applied within an hour, otherwise subjecting all plants to identical conditions consistent with good laboratory practices. Solutions applied to controls included nutrients and surfactants identical to the treatment solution, but without the active compound. General supplementation of foliar formulations included the following: 10-100 mM ammonium salt; 1-6 ppm manganese, Mn-EDTA; and 5-10 ppm calcium, Ca-EDTA. For example, foliar solutions of 0.3 mM p-aminophenylmannopyranoside, hereafter referred to as APM, were supplemented with 23 mM ammonium sulfate, (NH4)2SO4, 3 ppm Mn and 6 ppm Ca; and Nutrient Control contained 23 mM (NH4)2SO4, 3 ppm Mn and 6 ppm Ca. The foliar concentrations of Mn and Ca were higher than those specified previously because of the low volumes of foliar applications relative to hydroponic root immersion volumes, and they were particularly effective in combination with foliar applications of compounds because they supported high rates of productivity in the treated plants without phytotoxicity. Compounds for experimentation included the following: methyl-α-D-mannopyranoside (MeM), APM, and methyl-α-D-glucopyranoside (MeG). All foliar solutions were formulated with 1 gm/liter surfactant blend consisting of 0.5 gram DowCorning Q5211 dispersed into 1.5 grams BASF Pluronic L62. As a matter of course, untreated controls that foliar nutrients and wetting agents were not introducing artifacts. The standard volume for foliar application of experimental treatments was 200 liters/hectare. Identical volumes of foliar spray per tray of plant cultures were applied mechanically in a single pass. Controls were placed in the same location and given identical irrigation and handling as the treated plants. To compare the effects of treatments under tightly controlled conditions, plants were cultured, harvested, cleaned and weighed as per previously described methods. Treated plants were statistically analyzed in comparisons against controls. Each survey population held sufficient replicate sample numbers to make meaningful statistical analyses utilizing SPSS® software. Significance was determined at the 95% confidence interval (CI) of the difference. Counts of population numbers are denoted as “n” values. For experiments, radish “Cherry Bell” Raphanus sativus L., a root crop was planted and treated. […] Therefore, least concentrations were selected for statistical experimentation; and 200 l/ha foliar 1 mM MeM or 0.3 mM APM in nutrient-supplemented formulations were applied to 5 cm tall sprouts; while, Nutrient Controls were given foliar applications of identical solutions without the α-D-glycopyranosides; and no foliar solutions were applied to untreated controls which were otherwise identically cultivated and irrigated. For our quantification experiments, when improvements of root productivity over those of nutrient controls were visibly discernible 12 d after treatment, all populations of controls and treatments were harvested, and individual dry weights of treatment and control populations were analyzed.

[3] = system: Crocus; assay: Rooted Crocus cultivated in 700 μm silicate microbeads, treated with formulation; assay type: in vivo; details: 0.3 mM APM with 3 ppm Mn, 6 ppm Ca; Crocus in 700 μm microbeads
Method: Individual plants were started from seeds, bulbs, or vegetative clones, inserted into containers of pre-moistened microbeads. Seedlings included ryegrass and corn; bulbs were of Crocus and paperwhite narcissus; and vegetative cuttings were from Coleus. Seeds generally germinated and were selected according to day of emergence of first roots as control and treatment sets. Roots were treated thereafter.
Plants were cultivated under controlled environmental conditions as follow: GE Ecolux® plant and aquarium F40T12 fluorescent illumination, photosynthetically active radiation (PAR) of 100 μEin·m^−2·s^−1, diel cycle of 16:8 h light:dark, 28:26° C., 10% to 20% relative humidity. Indoxyl glycopyranoside (IG) was formulated in water and applied and controls were given equal volumes of water without IG. […] Clear plastic 500 cc containers, perforated for drainage, were filled to a depth of 10 cm with up to 900 grams of microbeads each. Initially, basal plates of bulbs were immersed 1 cm into moistened 700 μm nmd silicate beads to initiate rooting. […] Controls were treated with addition of 0.1 ml water to their media. After 8 h uptake of the treatments, fertigation resumed in a manner consistent with pH-control. […]
For all experiments, at 7 d to 14 d after treatment, microbeads were saturated with water. […] For paperwhites, volumes of entire roots were measured by displacement of water in glass beakers.

[4] = system: radish; assay: Foliar application to radish grown hydroponically in 700 μm microbeads; assay type: in vivo; details: with 3 ppm Mn, 6 ppm Ca
Method: Approximately 200 grams of beads/cell filled individual 100 cc cells of plastic flats. Roots of radish are cultivated hydroponically by immersion of roots in 700 μm nmd shot, pre-moistened with buffered nutrient solution that included soluble Mn and Ca, and plants were allowed to grow for 72 h prior to treatment with aminophenyl-α-D-mannopyranoside.
4-aminophenyl-α-D-mannopyranoside was dissolved in water (APM needs first to be solubilized in a small volume (1 ml) of ethanol prior to being added into water) with 3 ppm Mn as EDTA, 6 ppm Ca as EDTA, 10% isopropyl alcohol and 1.5 g/L Pluronic L-62. A solution of the formulation was applied to radish foliage. When compared to an identical control formulation without the aminophenyl-α-D-mannopyranoside, the above formulation provided a 20% root increase. For aminophenyl-α-D-mannopyranoside, the proper dose for radish is between 1 to 100 μg per plant and preferably between 5 to 50 μg per plant. This is the equivalent to an application of 75 to 100 gallons per acre at a preferred volume of 100 gallons per acre of up to 2 gm/liter.

[5] = system: Radish seedlings; assay: Radish seedling assay, immersion in nutrient solution with α-mannosides; assay type: in vivo; details: for growth response compared to Nutrient Control (visual): 1 mM TAM, 100 μM MP, 25 μM to 500 μM MeM, 10 μM APM
Method: Plants were cultured in research facilities and consistency of response to treatments was achieved by supplementation with chelated calcium and manganese. All plants were regularly given modified Hoagland water-culture nutrients. […] Controls were placed in the same location and all plants were given the same irrigation, fertilizers, and handling, but without the experimental compounds. Plants were matched to controls and treated within a week of emergence of cotyledon and true leaves. The performance of compounds was evaluated by comparing means of individual dry weights of shoots and roots. Statistics applied two-tailed Student's t-test with p-values significant within 95% confidence intervals. Counts of populations are “n” values and standard error is denoted “±SE.” Specialty chemicals included the following: tetramethyl-β-D-glucoside (TMG); tetraacetyl-D-glucopyranose (TAG); pentaacetyl-α-D-mannopyranose (MP); p-amino-phenyl-α-D-mannoside (APM); methyl-α-D-mannoside (MeM) and methylglucoside (MeG). MPG was synthesized. 2,3,4,6-tetra-O-acetyl-D-mannopyranose (αβ) was utilized. As required, MP and APM were dissolved in a lower aliphatic alcohol prior to dilution in aqueous media.
Assay—Radish seedlings were treated with α-mannosides after emergence of radicles. Seedlings were matched and transferred to Nutrient Control or treatment solutions. Assays were maintained under environmental conditions as follow: Photosynthetically active radiation 100 μEin·m^−2·sec^−1, diel cycle of 16:8 h light:dark, 26:26° C.

[6] = system: radish (Raphanus sativus L., cultivar "Cherry Bell"); assay: Radish seed germination and seedling growth, nutrient omission media; assay type: in vivo
Method: Treatment of seeds and seedlings by aqueous solutions is exemplified by mannosides supplemented with soluble divalent cations in complete mannosides formulations. […] Benefits of such exemplary seed priming methods are as follows: Germination and early growth of radish (Raphanus sativus L., cultivar “Cherry Bell”) and Swiss Chard (Beta vulgaris subspecies cicla L., cultivar “Fordhook® Giant”) were tested for response to α-mannosides supplemented with Ca^2+ and/or Mn^2+. Rapid assays of radish seed germination and growth used hydroponic cultures with no solid medium; longer experiments with Swiss Chard used a 2-5 mm substratum of 700 μm diameter glass microbeads. Neutralization of glass microbeads may be undertaken with dilute mildly acidic solution titrated to pH 6; for example, with mineral acids such as hydrochloric acid, sulfuric acid, nitric acid, and the like; organic acids such as uronic, citric, malic, lactic, salicylic, ascorbic, succinic, oxaloacetic, ketoglutaric, fumaric acids, and amino acids, and the like; artificial biological buffering agents such as TRIS, BIS TRIS, MES, MOPS, HEPES, and the like; fertilizers; and most preferably, phosphates; and the most highly preferred compounds are combinations of compounds in a pH 6-buffer that provide major nutrients for plants, such as MAP with DKP or DAP with MKP; and the like. When test medium was added, the glass microbeads formed an even layer, drawing liquid to the surface by capillary action. Seeds were examined to exclude aberrantly large, small, or damaged seeds, and were placed on the surface of the substratum. For experiments using post-germination seedlings, seeds were germinated in deionized water prior to exposure to nutrient media. A seed with an emerged radicle >1 mm was recorded as germinated, and germinated seeds were counted daily, until 95% germination. There was no visible evidence of either desiccation or waterlogging effects. Glass microbeads were removed by immersion and agitation in water, or manually with fine forceps. Harvested plants were oven-dried to determine dry weight. Treatment and control solutions were prepared by dissolving nutrients in deionized ultrapure water.
Growth media were based on omission or inclusion of glycosides and targeted divalent cations. Triose is the abbreviation for α-1,3-α-1,6 mannotriose) and MEM is methyl-α-D-mannoside. Terminology used herein indicates the omission or inclusion of nutrients: 000=control medium with no glycoside, Ca^2+ or Mn^2+; MeMOO=medium with MeM, but no Ca^2+ or Mn^2+; MeMCaO=medium with MeM and Ca^2+, but no Mn^2+, OCaMn=medium with no MeM, but with Ca^2++Mn^2+; and so on. Similar terminology is used for media containing triose. Results cited are means±SE. […]

Question: OC[C@H]1O[C@H](O[C@H]2[C@H](O)[C@@H](O)C(O)O[C@@H]2CO)[C@H](O)[C@@H](O)[C@@H]1O (mixture of isomers) [maltose] was tested. Which “potency relative to alpha-MeG” value [1] did it give?
Answer: lower potency

Question: And the “potency relative to beta-MeG” value [1]?
Answer: 9 ×

Question: What does the source list for Nc1ccc(O[C@H]2O[C@H](CO)[C@@H](O)[C@H](O)[C@@H]2O)cc1 [APM, 4-amino-phenyl-α-D-mannopyranoside]?
Answer: root mean dry weight over the Nutrient Control ([2]; foliar 0.3 mM with nutrients): significant (n=72; p=0.003) increase; root mean dry weight increase over controls ([2]; foliar 0.3 mM, 200 l/ha, harvest 12 d after treatment, n=72, p=0.003): approximately 20%; active concentration applied for growth response [2]: 0.3 mM; root and shoot development / productivity compared to Control [3]: clearly advanced productivity; also recorded: advanced root and shoot development; root increase compared to identical control formulation [4]: 20%; mean dry weight of whole plants ([5]; 5 μM, 48 h): 9.4 mg; difference of mean dry weight from the Nutrient Control ([5]; 5 μM, 48 h, p=0.06): not significantly different; also recorded: no significant difference; mean dry weight of whole plants ([5]; 10 μM, 48 h): 10.3 mg; enhancement of mean dry weight over Nutrient Control ([5]; 100 μM, 48 h): 10%; mean dry weight of whole plants ([5]; 100 μM, 48 h): 11 mg; growth response compared to Nutrient Control (visual) ([5]; 48 h): advanced growth

Question: CC(=O)OC[C@H]1O[C@H](OC(C)=O)[C@@H](OC(C)=O)[C@@H](OC(C)=O)[C@@H]1OC(C)=O [MP, pentaacetyl-α-D-mannopyranose] was tested. Which “mean dry weight of whole plants” value ([5]; 100 μM, 48 h) did it give?
Answer: 8.2 mg

Question: And the “growth response compared to Nutrient Control (visual)” value ([5]; 48 h)?
Answer: advanced growth responses

Question: And the “potency compared with the mixed anomers” value ([5]; effective doses 100 μM MP and 1 mM TAM)?
Answer: higher potency

Question: How did the “productivity over nutrient and untreated controls” value ([2]; foliar 129 mM with Ca, Mn and ammoniacal nitrogen) turn out when CO[C@H]1O[C@H](CO)[C@@H](O)[C@H](O)[C@H]1O [MeG, methyl-α-D-glucopyranoside, reference compound] was run?
Answer: consistently increased productivities

Question: And the “active concentration applied for growth response” value [2]?
Answer: 129 mM

Question: How did the “mean dry weight of whole plants” value ([5]; 100 μM, 48 h) turn out when CC(=O)OC[C@H]1OC(O)[C@@H](OC(C)=O)[C@@H](OC(C)=O)[C@@H]1OC(C)=O (stereo partly drawn) [TAM, 2,3,4,6-tetra-O-acetyl-D-mannopyranose (αβ)] was run?
Answer: 8.1 mg

Question: And the “difference of mean dry weight from the Nutrient Control” value ([5]; 100 μM, 48 h, p=0.11)?
Answer: no significant difference

Question: What about the “mean dry weight of whole plants” value ([5]; 1 mM, 48 h) of the same molecule?
Answer: 8.8 mg

Question: What about the “growth response compared to Nutrient Control (visual)” value ([5]; 48 h) of the same molecule?
Answer: advanced growth responses

Question: OC[C@H]1O[C@H](OC[C@H]2OC(O)[C@@H](O)[C@@H](O[C@H]3O[C@H](CO)[C@@H](O)[C@H](O)[C@@H]3O)[C@@H]2O)[C@@H](O)[C@@H](O)[C@@H]1O (stereo partly drawn) [triose, α-1,3-α-1,6 mannotriose] was tested. Which “seedling growth compared with no triose” value ([6]; 1 μM triose, lacking Ca2+) did it give?
Answer: comparable to seedlings grown with no triose

Question: What about the “mean dry weight compared with medium with no triose” value ([6]; 0.3, 1 or 10 μM triose with Mn2+ and Ca2+, 1 day treatment, second day) of the same molecule?
Answer: significantly greater

Question: And the “concentration at which no growth enhancement was observed” value ([6]; radish seedlings, complete media)?
Answer: less than 0.3 μM
